These are literature values, as cited in US20050215521A1, “Modafinil combination therapy for improving sleep quality” (priority 2003, published 2005).

Counter-ions that a name gives are not always drawn.

Series [1] has as its target GABA:2-oxo-glutarate aminotransferase (Homo sapiens, UniProt P80404). The conditions noted are these: at concentrations of 10^−3 M.
In a further series the test system is GABA uptake system. The conditions noted are these: at concentrations of 5×10^4 M.
Series [2] relates to L-glutamate 1-carboxylase. Conditions: at concentrations of 10^−3 M.
The next series deals with mice. The conditions noted are these: reference agents, scores below 40 of 60 denote behavioral depression.
The conditions of series [3]: in vivo.
For series [4] the following is noted: oral.

Chain of GABA:2-oxo-glutarate aminotransferase (P80404 29-500): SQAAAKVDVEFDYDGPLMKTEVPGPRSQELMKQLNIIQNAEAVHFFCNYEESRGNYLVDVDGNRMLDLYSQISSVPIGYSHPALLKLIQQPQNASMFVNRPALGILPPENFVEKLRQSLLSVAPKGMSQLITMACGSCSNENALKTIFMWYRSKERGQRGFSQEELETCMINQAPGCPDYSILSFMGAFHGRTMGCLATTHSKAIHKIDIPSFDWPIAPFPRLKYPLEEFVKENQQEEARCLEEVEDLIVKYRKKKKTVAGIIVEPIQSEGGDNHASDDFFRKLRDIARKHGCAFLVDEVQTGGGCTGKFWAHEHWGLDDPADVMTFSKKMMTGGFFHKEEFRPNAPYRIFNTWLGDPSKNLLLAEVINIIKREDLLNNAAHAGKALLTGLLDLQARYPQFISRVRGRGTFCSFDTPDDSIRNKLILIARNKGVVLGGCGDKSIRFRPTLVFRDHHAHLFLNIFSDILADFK

Turning to `Oc1noc2c1CCNC2` [gaboxadol, 4,5,6,7-tetrahydroisoxazolo[5,4-c]pyridin-3-ol], the “interaction with GABA:2-oxo-glutarate aminotransferase” value in series [1] is reported as “did not interact”. For the same compound, the “interaction with the GABA uptake system” value in the series with GABA uptake system is recorded as “did not interact”. For the same compound, the “interaction with L-glutamate 1-carboxylase” value in series [2] is listed as “did not interact”. Consider `COC(=O)[C@H]1[C@H]2C[C@@H]3c4[nH]c5cc(OC)ccc5c4CCN3C[C@H]2C[C@@H](OC(=O)c2cc(OC)c(OC)c(OC)c2)[C@@H]1OC` [reserpine], for which the ED100 in the series on mice was 50 mg/kg.

As to `CCC1(c2ccccc2)CCC(=O)NC1=O` (stereo not shown) [glutethimide], the ED100 with mice is given as 300 mg/kg.

Take `CCCC(C)C1(CC)C(=O)NC(=O)NC1=O` (stereo not shown) [pentobarbital]: the ED100 in the series with mice was 100 mg/kg. With `NC(=O)C[S+]([O-])C(c1ccccc1)c1ccccc1` (stereo not shown) [Modafinil, 2-[(Diphenylmethyl)sulfinyl]-N-acetamide], the solubility in methanol entry is “sparingly or slightly soluble” and the solubility in water entry is given as “insoluble”. Where the note is “acetone”, the solubility in acetone entry was “sparingly or slightly soluble”. Moreover, the solubility in cyclohexane result (cyclohexane) is on record as “insoluble”. As for `CP(=O)(O)CCCN` [SKF 97541, 3-aminopropyl(methyl)phosphinic acid], the solubility in water entry is given as “readily soluble”. Further, the “solubility in dilute aqueous base” value (dilute aqueous base) is given as “readily soluble”.

As to `Cc1ccc(-c2nc3ccc(C)cn3c2CC(=O)N(C)C)cc1` [zolpidem tartrate], the solubility in methanol result is “sparingly soluble” and the solubility in water result is given as “slightly soluble”. The “solubility in methylene chloride” value (methylene chloride) is given as “practically insoluble”.

For the compound `CN1C(=O)CN=C(c2ccccc2)c2cc(Cl)ccc21` [diazepam, 7-chloro-1,3-dihydro-1-methyl-5-phenyl-2H-1,4-benzodiazepin-2-one], in the series on mice, the ED100 is 50 mg/kg. In the case of zopiclone, the “absorption from the stomach” value in series [3] is “well absorbed”. The “binding to plasma proteins” value in the series with plasma proteins is “not highly bound”. With `CCCC(C)(COC(N)=O)COC(N)=O` [meprobamate], in the series with mice, the ED100 is given as 300 mg/kg. On to `Cc1ccc(-c2nc3ccc(C)cn3c2CC(=O)N(C)C)cc1` [zolpidem, N,N,6-trimethyl-2-(4-methylphenyl)-imidazo[1,2-s]pyridine-3-acetamide], for which the “elimination half-life (mean)” value in series [4] was 2.4 h. In series [4] (hypnotic action), the duration of action entry was “up to 6 hours”. Regarding `O=C(CCCN1CCC(O)(c2ccc(Cl)cc2)CC1)c1ccc(F)cc1` [haloperidol], in the series with mice, the ED100 was 10 mg/kg.
